Test results taken from patent publication US20200352918A1, “COMPOUNDS AND METHODS FOR TREATING OR PREVENTING FIBROSIS” (priority 2019, published 2020).

What was measured:
ocular mucosal fibrosis = assay: Murine model of ocular mucosal fibrosis (OVA induced); assay type: in vivo, mice
Protocol: Female […] mice 8-10 week of age were used for all experiments. The mice were housed in the institute's vivarium in compliance with the Animal Research Committee. Immune-mediated conjunctivitis was induced in by i.p. injection of 200 μl of immunization mix containing: 10 μg Ovalbumin (OVA) (Sigma-Aldrich), 4 mg aluminium hydroxide (Thermo Scientific), and 300 ng of pertussis toxin (Sigma-Aldrich). After 2 weeks, mice received topical OVA challenge ([…]) once a day for 7 days for the development of fibrosis. To evaluate the efficacy of AA5 in preventing fibrosis, topical OVA challenge was accompanied by addition of 1, 10, 100 or 1000 ug/mouse (n=12) AA5 administered in both eyes in a volume of 5 ul for a total of 7 days.
To evaluate the efficacy of AA5 in resolving fibrosis, topical OVA challenge was continued for an additional 7 days (days 14-21) after the initial OVA sensitization for the development of fibrosis. From day 21 to 28, OVA challenge was accompanied by addition of 1, 10, 100 or 1000 ug/mouse (n=12) AA5. 1% DMSO administered in both eyes in a 5 µl volume of PBS was used as control. Both eyes were scored in the same manner. For the scoring, a cumulative score of eyelid swelling (out of 3) and tearing (out of 3) was taken. At the end of the experiment at day 21 (prevention studies) or […] (resolution studies), mice were sacrificed and whole eyes were collected, fixed in 10% (v/v) formalin and processed by the standard methods for paraffin embedding. Sections (5 μm) were stained with Gomori Trichrome and H&E and imaged. Tissue sections were reviewed by 4 independent observers, including two observers who were blinded to the groups—a pathologist and another researcher. Conjunctivae were dissected from whole eyes and either processed for RNA or hydroxyproline.
Conjunctiva or LSCs were boiled in 50 μl or 400 μl of 6 M HCl, respectively at 100° C. overnight. Hydroxyproline levels were measured in the acid hydrolysis method using a kit from Biovision Inc. (Milpitas, Calif.) using the manufacturer's instructions. […]

[1] = test system: bleomycin model of lung injury; assay: Bleomycin-induced pulmonary fibrosis in aged mice; assay type: in vivo
Protocol: To define the anti-fibrotic effect of AA5, a bleomycin model of lung injury in aged mice was used as a model of lung fibrosis (FIG. 30A). 52-week-old mice were challenged with bleomycin (3 U/kg) by the oropharyngeal route to induce lung injury, followed by systemic administration of AA5 (20 mg/kg) or DMSO, from days 7-21 post bleomycin injury. Naïve mice were maintained as controls. The mice were sacrificed on day 21 and the total collagen content of the lungs was quantified using the hydroxyproline assay. […] The percentage of fibrotic areas from each section was quantified using hematoxylin and eosin staining, tiled and imaged on a Zeiss Axioscope microscope at 2.5× and quantified using the spline contour tool using the ZEN 2011 software.
Naive mice (n=4) without bleomycin were also monitored in the same manner throughout treatment period. […] Data represent min-max and median of collagen content relative to total protein content. ***P<0.001 **P<0.01 using one-way ANOVA and Sidak's multiple comparison test. FIGS. 30C and 30D show a representative H&E section of bleomycin treated lungs with the borders of the lung and fibrotic areas marked using the spline contour tool (FIG. 30C). […] Scale bar, 200 μm. […] Scale bars, 100 μm.

iFA model = assay: In situ cell elasticity by atomic force microscopy in the iFA model; assay type: cell-based, human; conditions: AA5 vs DMSO-treated iFA model
Protocol: Tapping mode AFM using the Bruker BioScope Catalyst Atomic Force coupled with Zeiss LSMS Confocal Fluorescence Microscope was used on the cells at 37° C. in cell culture media. AFM deflection images of cells were used in the imaging experiment. In the force measurement, sharp silicon nitride AFM probes (tip radius, 20 nm) were employed (Bruker Corp., USA). The spring constants of AFM tips were calibrated to be 0.10-0.11 N m^−1 and deflection sensitivities were 45-50 nm V^−1, using Thermo K Calibration (Agilent Technologies, USA). The approaching/retracting speed of the AFM tip during the force curve measurement was 6 μm s^−1. Force-distance curves were recorded to obtain cell elasticity (Young's modulus, E) of individual cells. For each time point, at least 20 single cells, 20 cells at the base of the iFA and 20 cells at the tip of the scar were measured with over 15 force-distance curves per cell to obtain significant results. The Young's modulus was calculated via the Scanning Probe Image Processor (SPIP) software (Image Metrology, Denmark) by converting the force-distance curves to force-separation curves and fitting the Sneddon variation of the Hertz model, which describes conical tips indenting elastic samples.

HMGB1 = HMGB1 (ELISA, IF) in the iFA model; assay type: cell-based, human
Protocol: Conditioned media at different time points of progression of the phenotype, and on prevention and resolution drug treatments were collected and quantification of protein was performed using the IBL man HMGB1 ELISA kit or LSBio NPTX1 ELISA kits per manufacturer's instructions. 10 μl of each supernatant sample was added to anti-HMGB1 polyclonal antibody-coated plate and incubated for 20 hours at 37° C. All liquid was then removed and the plate manually washed 5 times with wash buffer. 100 μl of enzyme conjugate was then added and incubated for 2 hours at room temperature. After washing again, color solution was added at 100 μl per well and incubated for 30 minutes at room temperature. Following an additional five washes, the plate was incubated with 90 μl of TMB substrate for another 15 minutes at 37° C. in the dark. The reaction was then stopped by addition 100 μl of stop solution. Absorbance was measured at 450 nm using a SpectraMAX Plate Reader. Data was analyzed using SoftMax Pro software.
Cells grown on coverslips were fixed in 4% paraformaldehyde (PFA) for 10 min at room temperature and washed three times with TBS buffer supplemented with 0.1% Tween 20 (TBST). Lung samples were fixed overnight in 4% PFA at room temperature, washed 3 times in PBS, dehydrated and then infiltrated and embedded with wax. Five-micron sections were collected on glass slides, deparaffinized and rehydrated. […]

Cc1c(C(=O)Nc2nc3ccccc3s2)sc2nc3cc4c(cc3cc12)OCO4 [AA5]
Gomori Trichrome sections of whole eyes: conjunctiva thickness and collagen deposition (ocular mucosal fibrosis; AA5 1000 ug): qualitatively decreased thickness of conjunctiva and collagen deposition
Collagen content of the conjunctivae (ocular mucosal fibrosis; AA5-prevention and AA5-resolution at 0.1 and 1 mg doses): significant reduction
Clinical swelling, tearing and inflammation of eyes (ocular mucosal fibrosis; topical, preventive and resolutive treatments, vs DMSO-treated eyes): less clinical swelling, tearing and inflammation
Total collagen of the lungs (hydroxyproline assay) ([1]; AA5 20 mg/kg systemic, days 7-21 post bleomycin, day 21, vs vehicle): significantly reduced total collagen
Type II marker pro-Surfactant Protein C (proSPC) ([1]; AA5 20 mg/kg vs vehicle, IF): qualitatively larger number
Percentage of fibrotic areas (H&E) ([1]; AA5 20 mg/kg, day 21): vehicle treated mice displayed significantly more fibrotic areas compared to the AA5 treated animals
Cell stiffness (iFA model): significantly decreased
Cytoplasmic HMGB1 (IF staining) (HMGB1; AA5-prevention and AA5-resolution vs DMSO): absence or significantly reduced cytoplasmic HMGB1
Secreted levels of HMGB1 (HMGB1; iFA model, AA5p and AA5r vs DMSO): attenuated
